Results taken from paper PMC9906638, “AlphaFold accelerates artificial intelligence powered drug discovery: efficient discovery of a novel CDK20 small molecule inhibitor” (Chemical Science, 2023).
Like-named read-outs stand apart in the source and are kept apart here.

Experiments:
CDK20 [1] = settings: cited from earlier work
CDK20/CycT1 [2] = target: T1, CDK20/CycT1 (Homo sapiens, UniProt Q8IZL9); parameters: method as in doi:10.1158/1538-7445.AM2016-2821
T1 construct: purchased Reaction Biology Corp. (33PanQinase Activity Assay service)

CDK20 [3] = target: T2, CDK20 (Homo sapiens, UniProt Q8IZL9); assay: CDK20 human CMGC kinase binding assay (KINOMEscan); settings: for Kd: CDK20 kinase binding assay, mean ± SD of three independent experiments; for fold improvement in binding affinity compared to ISM042-2-001: ratio of Kd values
T2 construct: purchased DiscoverX/Eurofins (KINOMEscan service); host or cells: HEK-293
Procedure: CDK20 human CMGC kinase binding assay
The assay was available as a product of the KINOMEscan service from DiscoverX/Eurofins. In brief, CDK20 proteins were produced in HEK-293 cells and subsequently tagged with DNA for qPCR detection. […] The liganded beads were blocked with excess biotin and washed with blocking buffer (SeaBlock (Pierce), 1% BSA, 0.05% Tween 20, and 1 mM DTT) to remove the unbound ligand and to reduce non-specific binding. […] Binding constants (Kds) were determined using an 11-point 3-fold compound dilution series with three DMSO control points. […] The compounds were then diluted directly into the assays such that the final concentration of DMSO was 0.9%. All reactions were performed in polypropylene 384-well plates. Each has a final volume of 0.02 ml. […] The kinase concentration in the eluates was measured by qPCR. Kds were calculated with a standard dose–response curve. The curves were fitted using a non-linear least squares fit with the Levenberg–Marquardt algorithm.

CDK20/CycT1 [4] = target: T1, CDK20/CycT1; assay: CDK20 kinase activity assay (radiometric 33PanQinase); assay type: biochemical
Procedure: CDK20 kinase activity assay
A radiometric protein kinase assay ([33]PanQinase® ActivityAssay, available as a service product from Reaction Biology Corp.) was used for measuring the kinase activity of the CDK20 kinases. This assay was performed in 96-well FlashPlates™ from PerkinElmer (Boston, MA, USA) in a 50 μl reaction volume. The reaction cocktail was pipetted in four steps in the following order: (a) 25 μl of assay buffer (standard buffer/[γ-^33P]-ATP); (b) 10 μl of ATP solution (in H2O); (c) 5 μl of test compound (in 10% DMSO); (d) 10 μl of enzyme/substrate mixture. The assay for CDK20 kinase contained 70 mM HEPES-NaOH pH 7.5, 3 mM MgCl2, 3 mM MnCl2, 3 μM Na-orthovanadate, 1.2 mM DTT, 50 μg ml^−1 PEG20000, 1.0 μM ATP [γ-[33]P],-ATP (approx. 7 × 10^5 cpm per well), and 200 ng/50 μl kinase protein, and the substrate was 4.0 μg/50 μl. The compounds were dissolved to 1 × 10^−3 M in volumes of 100% DMSO. The 1 × 10^−3 M stock solutions were subjected to a serial, semi-logarithmic dilution using 100% DMSO as a solvent. The final volume of the assay was 50 μL All compounds were tested at 10 final assay concentrations in the range from 1 × 10^−5 M to 3 × 10^−10 M. The final DMSO concentration in the reaction cocktails was 1% in all cases. The “low control” was defined as the value that reflects unspecific binding of radioactivity to the plate in the absence of a protein kinase but in the presence of the substrate. The “high control” was defined as the full activity in the absence of any inhibitor. The difference between high and low controls was taken as 100% activity. As part of the data evaluation the low control value from a particular plate was subtracted from the high control value as well as from all 80 “compound values” of the corresponding plate.
The residual activities for each concentration and the compound’s IC50 values were calculated using Quattro Workflow V3.1.1 (Quattro Research GmbH, Munich, Germany; http://www.quattro-research.com/). […] The fitting method used was a least-squares fit.

Huh7 = assay: Cell viability assay (Celltiter Glo), Huh7; assay type: cell-based; settings: Homo sapiens, Huh-7, 72 h; HCC cell line with CDK20 overexpression; 3 days incubation; read-out: anti-proliferation IC50 in Huh7
Procedure: (§1) The Huh7 and HEK293 cells were maintained in DMEM with 10% FBS and 1% streptomycin and penicillin in 5% CO2. When the confluence of these two cell lines reached 80–90%, cells were harvested and resuspended, and the proper cells were added into a 384-well plate as below: Huh-7: 650 cells per well; HEK-293 : 300 cells per well. The final testing concentrations of the compounds were: 10 000, 3333, 1111, 370, 123, 41.2, 13.7, 4.57, 1.52, and 0.51 nM. The cells were incubated in a 37 °C, 5% CO2 incubator for 3 days, and then a reagent was added (Celltiter Glo assay kit) to the cells for testing and a Multiplate reader was used to record the chemiluminescence value. And GraphPad Prism 9 software was used to calculate IC50 and plot the effect–dose curve of compounds. The assays were conducted at Pharmaron Inc. in a fee-for-service mode.

HEK293 = assay: Cell viability assay (Celltiter Glo), counter screen HEK293; assay type: cell-based; settings: Homo sapiens, HEK293, 72 h; counter screen cell line; 3 days incubation; read-out: anti-proliferation IC50 in HEK293
Procedure: as §1

[5] = read-out: CDK20/CycT1 IC50; poster of Mueller et al.; cited from earlier work
[6] = CDK20 kinase activity assay, 1.0 μM ATP, values with SD from three independent experiments, read-out: CDK20/CycT1 IC50

T1 sequence (Q8IZL9 whole entry): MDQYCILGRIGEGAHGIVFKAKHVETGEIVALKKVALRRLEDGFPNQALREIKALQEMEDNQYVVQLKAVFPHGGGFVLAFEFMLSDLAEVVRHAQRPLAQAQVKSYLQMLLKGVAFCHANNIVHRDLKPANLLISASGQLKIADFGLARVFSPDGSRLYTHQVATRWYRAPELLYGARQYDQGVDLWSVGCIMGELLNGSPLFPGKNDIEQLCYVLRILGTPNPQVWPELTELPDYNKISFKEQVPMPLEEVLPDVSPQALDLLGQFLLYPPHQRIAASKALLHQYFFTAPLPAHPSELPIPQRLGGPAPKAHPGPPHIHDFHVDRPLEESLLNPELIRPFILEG
T1 sequence (O60563 whole entry partner): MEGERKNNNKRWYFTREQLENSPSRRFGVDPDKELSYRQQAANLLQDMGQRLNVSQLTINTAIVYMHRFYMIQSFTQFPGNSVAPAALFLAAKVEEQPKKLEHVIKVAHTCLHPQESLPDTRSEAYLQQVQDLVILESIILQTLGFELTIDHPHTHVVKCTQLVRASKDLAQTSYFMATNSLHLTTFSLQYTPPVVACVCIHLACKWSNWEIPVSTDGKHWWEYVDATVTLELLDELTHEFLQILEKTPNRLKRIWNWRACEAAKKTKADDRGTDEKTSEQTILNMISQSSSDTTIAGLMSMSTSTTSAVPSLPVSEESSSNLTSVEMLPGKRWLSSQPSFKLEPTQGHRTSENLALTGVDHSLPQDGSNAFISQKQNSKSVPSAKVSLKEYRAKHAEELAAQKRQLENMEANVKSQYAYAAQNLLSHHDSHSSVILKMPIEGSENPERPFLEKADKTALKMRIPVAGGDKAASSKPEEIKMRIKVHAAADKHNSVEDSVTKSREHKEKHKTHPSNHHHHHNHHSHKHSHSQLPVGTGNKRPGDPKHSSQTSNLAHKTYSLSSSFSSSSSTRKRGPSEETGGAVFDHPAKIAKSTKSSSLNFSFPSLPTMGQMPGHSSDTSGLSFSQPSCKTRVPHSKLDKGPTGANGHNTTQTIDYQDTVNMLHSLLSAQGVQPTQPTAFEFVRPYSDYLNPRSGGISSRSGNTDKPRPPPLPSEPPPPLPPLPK
T2 sequence (Q8IZL9 whole entry): as the sequence (Q8IZL9 whole entry) above

| Kd (CDK20 [3]) [µM] | IC50 (CDK20/CycT1 [4]; [6]) [µM] | SMILES | further results |
| --- | --- | --- | --- |
|  |  | O=C(Nc1ccc2cc(C(=O)Nc3nccs3)ccc2c1)c1ccc(Cl)c(Cl)c1 [AAPK-25] | Kd (CDK20 [1]): 8.02 µM |
|  |  | CC(C)(CO)CNCc1ccc(Nc2ncc(SCc3ncc(C(C)(C)C)o3)s2)nc1 [BMS-357075] | Kd (CDK20 [1]; disclosed by Eurofins): 0.056 µM |
|  |  | CCc1cnn2c(NCc3ccc[n+]([O-])c3)cc(N3CCCC[C@H]3CCO)nc12 [Dinaciclib] | IC50 (CDK20/CycT1 [2]; [5]): 2.86 µM |
| 9.2 ± 0.5 | > 6 | CNC(=O)c1cc(Nc2ncc3ccccc3n2)c[nH]1 [ISM042-2-001] |  |
| > 30 |  | Cn1cc(Oc2ccnc(NC3(C)CC3)c2)cn1 [ISM042-2-004] |  |
| > 30 |  | NC(=O)c1cc(N2CCC(F)(F)CC2)nc(-c2cc[nH]n2)n1 [ISM042-2-007] |  |
| > 30 |  | c1cc(-n2cc(C3COC3)nn2)cc(NC2CC2)n1 [ISM042-2-009] |  |
| > 30 |  | CCc1ccc(-c2cccc3nc(NC4CCCC4)[nH]c23)[nH]c1=O [ISM042-2-015] |  |
| > 30 |  | Cc1ccnc(-n2cncc2N2CC3(COC3)C2)n1 [ISM042-2-019] |  |
| > 30 |  | c1cc(-c2nc3cnncc3s2)nc(N[C@H]2CCNC2)n1 [ISM042-2-025] |  |
| 0.567 ± 0.256 | 0.0334 ± 0.0226 | CNC(=O)c1cc(Nc2ncc3ccc(-c4cn[nH]c4)cc3n2)c[nH]1 [ISM042-2-048] | fold improvement in binding affinity compared to ISM042-2-001 (CDK20 [3]): 15 fold; IC50 (Huh7): 0.209 ± 0.0033 µM; IC50 (HEK293): 1.71 ± 0.67 µM |
| 0.36 ± 0.0141 | 0.468 ± 0.006 | CNC(=O)c1cc(Nc2ncc3ccc(=O)n(C4CCCC4)c3n2)c[nH]1 [ISM042-2-049] | fold improvement in binding affinity compared to ISM042-2-001 (CDK20 [3]): 24 fold |
| 5.33 ± 1.19 | 7.1 ± 0.478 | CNC(=O)c1cccc(Nc2ncc3ccccc3n2)c1 [ISM042-2-050] |  |
| 18.7 ± 6.34 |  | CN(C)CCNC(=O)c1cc(Nc2ncc3ccccc3n2)c[nH]1 [ISM042-2-052] | IC50 (CDK20/CycT1 [4]): > 6 µM |
| 17.7 ± 4.03 | 7.8 ± 0.125 | CN1CCN(CCNC(=O)c2cc(Nc3ncc4ccccc4n3)c[nH]2)CC1 [ISM042-2-053] |  |
| 14.3 ± 1.7 | 4.08 ± 0.575 | CN1CCC(NC(=O)c2cc(Nc3ncc4ccccc4n3)c[nH]2)CC1 [ISM042-2-055] |  |
|  |  | CC(=O)c1c(C)c2cnc(Nc3ccc(N4CCNCC4)cn3)nc2n(C2CCCC2)c1=O [Palbociclib] | IC50 (CDK20/CycT1 [2]; poster of Mueller et al.; read-out: CDK20/CycT1 IC50; cited from earlier work): 1.26 µM |
|  |  | CC[C@H](CO)Nc1nc(NCc2ccccc2)c2ncn(C(C)C)c2n1 [Roscovitine] | IC50 (CDK20/CycT1 [2]; [5]): 8.68 µM |
